From paper PMC5108564, “Use of ferrous iron by metallo-β-lactamases” (Journal of Inorganic Biochemistry, 2016)
“And” between values parts separate entries of the source, which are not always exact repeats. Equal entries are not always repeated.

Legend:
[1] = biological target: T1, di-Fe(II) BcII (Bacillus cereus, UniProt P04190); experiment: Inhibition assay with nitrocefin as reporter substrate; format: biochemical
T1 construct: made in house; host or cells: E. coli BL21(DE3)pLysS
Description: (§1) Enzyme concentrations were the same as those employed in equilibrium kinetic studies. […] Residual enzyme activity was determined for a range of inhibitor concentrations. Non-linear regression fitting of IC50 curves was carried out using a three-parameter dose-response curve in GraphPad Prism. Errors are expressed as: σlogIC50/logIC50×IC50 .
(§2) MBL inhibition is a current target for medicinal chemistry, [63]. Given the observed differences in metal binding geometries between the di-Fe(II) and di-Zn(II) form of BcII and in the kinetic properties of di-Fe(II) BcII and VIM-2 compared to their di-Zn(II) enzymes, we then investigated whether the two metal-substituted BcII enzymes might respond differently to known MBL inhibitors (Table 3 and Fig. S12). We were particularly interested to see if the two enzyme forms responded differently to thiol-based MBL inhibitors, since the sulfur often bridges the two metal centres as an analogue of the bridging water during inhibition, [64].

[2] = biological target: T2, di-Zn(II) BcII (Bacillus cereus, UniProt P04190); experiment: as above; format: biochemical
T2 construct: made in house; host or cells: E. coli BL21(DE3)pLysS
Description: as §1, §2

[3] = biological target: T3, di-Zn(II) VIM-2 (Pseudomonas aeruginosa, UniProt Q9K2N0); details: meropenem as substrate, VIM-2 Zn(II), [E] 5 nM
Description: (§5) Steady-state kinetic studies were carried out using a Pherastar FS microplate reader and UV-Star 96 well clear microplates (Greiner Bio-One). Samples of 1 mM apo-enzyme were pre-incubated with two equivalents of TCEP·HCl for 5 min prior to addition of 3.5 equivalents of the desired metal before dilution to concentrations required for kinetic assays. For Fe(II)-substituted enzymes, plates were prepared at ≤ 2 ppm O2 using deoxygenated buffer and sealed prior to absorbance readings. […] Substrate concentrations ranged between 400 μM and 0.4 μM. The Michaelis-Menten equation was fitted to data by non-linear regression using GraphPad Prism software to calculate the Michaelis-Menten constant and the limiting rate [43].

[4] = biological target: T4, di-Fe(II) VIM-2 (Pseudomonas aeruginosa, UniProt Q9K2N0); details: meropenem as substrate, VIM-2 Fe(II), [E] 30 nM, low O2
Description: as §5

[5] = biological target: T1, di-Fe(II) BcII; experiment: Stopped-flow UV/Vis absorption kinetics of nitrocefin hydrolysis; format: biochemical; parameters: k1 / k-1 / k2 / k3 / k4 / k5: unit not given here; details: for Substrate Decay / Product accumulation / Intermediate Decay / Intermediate accumulation: Fe(II), 1:1, 5 °C; for k1: 50 µM enzyme, 50 µM nitrocefin
Description: (§3) All metal solutions and metal-substituted enzymes for stopped-flow kinetics were prepared at ≤ 40 ppm O2 using deoxygenated buffers. Buffers used were: 50 mM HEPES pH 7.5, 200 mM NaCl; 50 mM MES pH 6.5, 200 mM NaCl; 50 mM MES pH 5.5, 200 mM NaCl. All buffers were treated with Chelex 100 to remove residual metal ions. Aliquots of apo-enzyme were diluted to 100 μM by addition of reaction buffer (1 mL final volume). The enzyme was incubated with two equivalents of tris(2-carboxyethyl)phosphine hydrochloride salt (TCEP·HCl), by addition of 2 μL of a 100 mM stock, for 5 min. Metal-substituted enzymes were then produced by the addition of 3.5 equivalents of metal salt to the apo-enzyme (3.5 μL of a 100 mM stock in buffer). […] Spectra were recorded over 100 s using a photodiode-array detector. Subsequent analysis of kinetic traces was carried out using Origin 8.5 [41]. Curves corresponding to substrate depletion (390 nm) and product accumulation (485 nm) were fitted by a single exponential function, whilst 665 nm features were fitted by a double exponential function.
(§4) Note that difference spectra were employed to identify the λmax of the feature and indicate that the feature corresponds to an independent species. […] Thus the observation of a visible reaction intermediate absorbing at 665 nm depends on the particular metal-enzyme combination employed.
The observation of an intermediate at 665 nm with di-Fe(II) BcII strongly correlates with increasing pH, with a larger change in absorbance amplitude at pH 7.5 (ΔAbsmax at pH 7.5 is 0.25 compared to ΔAbsmax at pH 6.5 and 5.5 of 0.15 and 0.05, respectively, Fig. 2 & Figs. S4–5). […] Data fitting using the Kintek Explorer package was unable to distinguish between linear and branched pathways (Fig. S11), but in both fittings the decay of the intermediate species was identified as the rate-limiting step (k3 and k4 in Tables S4 and S5, respectively). Although intermediate decay is apparently rate limiting, a negligible amount of intermediate is seen at pH 5.5. This may be explained either by a branched pathway, in which the branch with no intermediate is favoured by lower pH, or by a linear pathway in which the rate of decay of the intermediate rises with a decrease in pH thus preventing an observable accumulation of intermediate.

[6] = biological target: T3, di-Zn(II) VIM-2; experiment: as above; format: biochemical; parameters: His-tag (3C protease site) (N, cleaved yes); made in house; host or cells: E. coli BL21(DE3)pLysS; details: 1:1, 5 °C
Description: as §3, §4

[7] = biological target: T4, di-Fe(II) VIM-2; experiment: as above; format: biochemical; parameters: His-tag (3C protease site) (N, cleaved yes); made in house; host or cells: E. coli BL21(DE3)pLysS; details: 1:1, 5 °C
Description: as §3, §4

[8] = biological target: T2, di-Zn(II) BcII; experiment: as above; format: biochemical; details: for Substrate Decay: 1:1 enzyme:nitrocefin, 5 °C; for Product accumulation: 1:1, 5 °C
Description: as §3, §4

[9] = test system: O=C(Cc1cccs1)N[C@@H]1C(=O)N2C(C(=O)O)=C(/C=C/c3ccc([N+](=O)[O-])cc3[N+](=O)[O-])CS[C@H]12; experiment: purified protein, by the assay type; details: other: nitrocefin as substrate
[10] = test system: C[C@@H](O)[C@H]1C(=O)N2C(C(=O)O)=C(S[C@@H]3CN[C@H](C(=O)N(C)C)C3)[C@H](C)[C@H]12; experiment: purified protein, by the assay type; details: other: meropenem as substrate, [E] 2 nM
Description: as §5

[11] = Kintek Explorer fit, branched mechanism, pH 7.5, 5°C
[12] = Kintek Explorer fit, linear mechanism, pH 7.5, 5°C

T1 sequence (P04190 31-257): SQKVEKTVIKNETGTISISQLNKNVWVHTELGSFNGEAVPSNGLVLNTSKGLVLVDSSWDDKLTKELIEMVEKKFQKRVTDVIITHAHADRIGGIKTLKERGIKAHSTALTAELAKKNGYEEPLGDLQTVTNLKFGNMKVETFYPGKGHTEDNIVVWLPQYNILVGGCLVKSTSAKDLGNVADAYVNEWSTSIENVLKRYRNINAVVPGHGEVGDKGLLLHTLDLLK
T2 sequence (P04190 31-257): as above

`O=C(O)CN(CCN(CC(=O)O)CC(=O)O)CC(=O)O` [EDTA] was tested, and the IC50 [1] was 4700 ± 100 µM and the IC50 [2] was 7500 ± 300 µM.
`O=C(O)/C(S)=C/c1c(Cl)ccc(Cl)c1Cl` [ML302F] was tested, and the IC50 [1] was 0.38 ± 0.08 µM, the “fold difference in IC50” value ([1]; di-Fe(II) BcII versus di-Zn(II) BcII) was about 10 fold and the IC50 [2] was 0.046 ± 0.001 µM.
With `O=C(O)C(S)c1ccccc1` (stereo not shown) [Thiomandelic acid] the IC50 [1] was 2.8 ± 0.8 µM and the IC50 [2] was 1.3 ± 0.3 µM.
`C[C@@H](O)[C@H]1C(=O)N2C(C(=O)O)=C(S[C@@H]3CN[C@H](C(=O)N(C)C)C3)[C@H](C)[C@H]12` [meropenem] showed a Km [3] of 10 ± 2 µM, a kcat [3] of 2.4 ± 0.1 s⁻¹ and a Km [4] of 16 ± 2 µM. It also gave a kcat [4] of 0.5 ± 0.0 s⁻¹.
With `O=C(Cc1cccs1)N[C@@H]1C(=O)N2C(C(=O)O)=C(/C=C/c3ccc([N+](=O)[O-])cc3[N+](=O)[O-])CS[C@H]12` [nitrocefin] the Substrate Decay ([5]; pH 5.5, 390 nm) was 3.88 s⁻¹ and 3.88 ± 0.01 s⁻¹, the Product accumulation ([5]; pH 5.5, 485 nm) was 5.78 ± 0.01 s⁻¹ and the Substrate Decay ([5]; pH 6.5, 390 nm) was 5.25 ± 0.01 s⁻¹. It also gave a Product accumulation ([5]; pH 6.5, 485 nm) of 4.27 ± 0.01 s⁻¹, an Intermediate Decay ([5]; pH 6.5, 665 nm) of 1.2 ± 0.1 s⁻¹ and an Intermediate accumulation ([5]; pH 6.5, 665 nm) of 18.31 ± 0.01 s⁻¹. The Substrate Decay ([5]; pH 7.5, 390 nm) was 7.25 s⁻¹ and 7.25 ± 0.01 s⁻¹, the Product accumulation ([5]; pH 7.5, 485 nm) was 7.20 ± 0.01 s⁻¹ and the Intermediate Decay ([5]; pH 7.5, 665 nm) was 1.4 ± 0.1 s⁻¹. It also gave an Intermediate accumulation ([5]; pH 7.5, 665 nm) of 20.32 ± 0.01 s⁻¹, a k1 [5, 11] of 239000 and a k2 [5, 11] of 46. The k3 [5, 11] was 73.4, the k-1 [5, 11] was 0.0000001 and the k5 ([5]; Kintek Explorer fit, branched mechanism, pH 7.5, 5°C, fixed) was 100000000. It also gave a k4 ([5]; Kintek Explorer fit, branched mechanism, pH 7.5, 5°C, intermediate decay, rate-limiting) of 4.18, a k1 [5, 12] of 225000 and a k2 [5, 12] of 82.7. It also gave a k-1 [5, 12] of 0.000000403, a k4 ([5]; Kintek Explorer fit, linear mechanism, pH 7.5, 5°C, fixed) of 100000000 and a k3 ([5]; Kintek Explorer fit, linear mechanism, pH 7.5, 5°C, intermediate decay, rate-limiting) of 7.2. The “Substrate Decay” value ([6]; pH 5.5, 390 nm) was 190 s⁻¹ and 190 ± 4 s⁻¹, the “Product accumulation” value ([6]; pH 5.5, 485 nm) was 93 ± 2 s⁻¹ and the “Intermediate Decay” value ([6]; pH 5.5, 665 nm) was 120 ± 10 s⁻¹. The “Intermediate accumulation” value ([6]; pH 5.5, 665 nm) was 220 ± 20 s⁻¹, the “Substrate Decay” value ([6]; pH 6.5, 390 nm) was 290 ± 10 s⁻¹ and the “Product accumulation” value ([6]; pH 6.5, 485 nm) was 130 ± 4 s⁻¹. The “Intermediate Decay” value ([6]; pH 6.5, 665 nm) was 160 ± 30 s⁻¹, the “Intermediate accumulation” value ([6]; pH 6.5, 665 nm) was 320 ± 80 s⁻¹ and the “Substrate Decay” value ([6]; pH 7.5, 390 nm) was 320 s⁻¹ and 320 ± 30 s⁻¹. For the same compound, the “Product accumulation” value ([6]; pH 7.5, 485 nm) was 140 ± 5 s⁻¹, the “Intermediate Decay” value ([6]; pH 7.5, 665 nm) was 180 ± 50 s⁻¹ and the “Substrate Decay” value ([7]; pH 5.5, 390 nm) was 35 s⁻¹ and 35 ± 1 s⁻¹. For the same compound, the “Product accumulation” value ([7]; pH 5.5, 485 nm) was 23.4 ± 0.5 s⁻¹, the “Substrate Decay” value ([7]; pH 6.5, 390 nm) was 0.24 s⁻¹ and 0.24 ± 0.01 s⁻¹ and the “Product accumulation” value ([7]; pH 6.5, 485 nm) was 0.44 ± 0.01 s⁻¹. The “Substrate Decay” value ([7]; pH 7.5, 390 nm) was 0.15 s⁻¹ and 0.15 ± 0.01 s⁻¹, the “Product accumulation” value ([7]; pH 7.5, 485 nm) was 0.35 ± 0.01 s⁻¹ and the Substrate Decay ([8]; pH 5.5, 390 nm) was 4.16 s⁻¹ and 4.16 ± 0.01 s⁻¹. For the same compound, the Product accumulation ([8]; pH 5.5, 485 nm) was 4.13 ± 0.01 s⁻¹, the Substrate Decay ([8]; pH 6.5, 390 nm) was 3.24 ± 0.01 s⁻¹ and the Product accumulation ([8]; pH 6.5, 485 nm) was 3.29 ± 0.01 s⁻¹. The Substrate Decay ([8]; pH 7.5, 390 nm) was 2.55 s⁻¹ and 2.55 ± 0.01 s⁻¹ and the Product accumulation ([8]; pH 7.5, 485 nm) was 2.75 ± 0.01 s⁻¹.
Work on di-Fe(II) BcII (Bacillus cereus) yielded a Km ([9]; BcII Fe(II), [E] 2 nM, low O2) of 11 ± 2 µM, a kcat ([9]; BcII Fe(II), [E] 2 nM, low O2) of 12.5 s⁻¹ and a kcat/Km ([9]; BcII Fe(II), [E] 2 nM, low O2) of 1.2 µM⁻¹ s⁻¹. For the same compound, the Km ([10]; BcII Fe(II), low O2) was 230 ± 30 µM, the kcat ([10]; BcII Fe(II), low O2) was 38 ± 2 s⁻¹ and the kcat/Km ([10]; BcII Fe(II), low O2) was 0.17 µM⁻¹ s⁻¹.
“di-Fe(II) VIM-2 (Pseudomonas aeruginosa)” showed a Km ([9]; VIM-2 Fe(II), [E] 1 nM, low O2) of 32 ± 5 µM, a kcat ([9]; VIM-2 Fe(II), [E] 1 nM, low O2) of 44 s⁻¹ and a kcat/Km ([9]; VIM-2 Fe(II), [E] 1 nM, low O2) of 1.4 µM⁻¹ s⁻¹.
For di-Zn(II) BcII (Bacillus cereus), the Km ([9]; BcII Zn(II), [E] 2 nM) was 12 ± 2 µM, the kcat ([9]; BcII Zn(II), [E] 2 nM) was 10.1 s⁻¹ and the kcat/Km ([9]; BcII Zn(II), [E] 2 nM) was 0.82 µM⁻¹ s⁻¹. The Km ([10]; BcII Zn(II)) was 220 ± 20 µM, the kcat ([10]; BcII Zn(II)) was 89 ± 3 s⁻¹ and the kcat/Km ([10]; BcII Zn(II)) was 0.40 µM⁻¹ s⁻¹.
In the case of “di-Zn(II) VIM-2 (Pseudomonas aeruginosa)”, the Km ([9]; VIM-2 Zn(II), [E] 0.1 nM) is reported as 9 ± 1 µM, the kcat ([9]; VIM-2 Zn(II), [E] 0.1 nM) is reported as 143 s⁻¹ and the kcat/Km ([9]; VIM-2 Zn(II), [E] 0.1 nM) is reported as 16 µM⁻¹ s⁻¹.
